Active and inactive are the calls of the source. The calls are words filed in the database; no cut-off is given here. Square brackets hold non-standard residues; d marks the D form. Peptide text beside a SMILES is read from it. Arg(Me) = CNC(=N)NCCC[C@H](N)C(=O)O; d3Pal = N[C@H](Cc1cccnc1)C(=O)O; d4Pal = N[C@H](Cc1ccncc1)C(=O)O; azaGly = NNC(=O)O
What was measured:
Rattus norvegicus = organism: Rattus norvegicus; settings: Compound concentration 1.0 uM
[1] = target: Histamine H3 receptor (Homo sapiens) (UniProt Q9Y5N1); settings: Compound concentration 1.0 uM
[2] = target: Alpha-1A adrenergic receptor (Homo sapiens) (UniProt P35348); settings: Compound concentration 1.0 uM
[3] = target: 5-hydroxytryptamine receptor 2C (Homo sapiens) (UniProt P28335); settings: Compound concentration 1.0 uM
[4] = target: D(1A) dopamine receptor (Homo sapiens) (UniProt P21728); settings: Compound concentration 1.0 uM
Sequence of D(1A) dopamine receptor (Homo sapiens) (P21728 whole entry): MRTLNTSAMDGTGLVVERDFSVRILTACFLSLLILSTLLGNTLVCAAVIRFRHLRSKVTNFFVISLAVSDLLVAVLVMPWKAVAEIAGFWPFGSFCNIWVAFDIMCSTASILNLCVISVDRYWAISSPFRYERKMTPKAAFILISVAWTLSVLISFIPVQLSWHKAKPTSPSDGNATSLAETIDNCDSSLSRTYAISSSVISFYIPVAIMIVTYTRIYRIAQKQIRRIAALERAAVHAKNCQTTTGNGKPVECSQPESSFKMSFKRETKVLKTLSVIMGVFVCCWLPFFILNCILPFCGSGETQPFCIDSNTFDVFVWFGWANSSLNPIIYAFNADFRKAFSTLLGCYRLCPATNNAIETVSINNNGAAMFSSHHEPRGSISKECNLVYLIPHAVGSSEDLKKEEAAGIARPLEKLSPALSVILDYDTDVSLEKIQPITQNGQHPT

[5] = target: Mu-type opioid receptor (Homo sapiens) (UniProt P35372); settings: Compound concentration 1.0 uM
[6] = target: Muscarinic acetylcholine receptor M4 (Homo sapiens) (UniProt P08173); settings: Compound concentration 1.0 uM
Sequence of Muscarinic acetylcholine receptor M4 (Homo sapiens) (P08173 whole entry): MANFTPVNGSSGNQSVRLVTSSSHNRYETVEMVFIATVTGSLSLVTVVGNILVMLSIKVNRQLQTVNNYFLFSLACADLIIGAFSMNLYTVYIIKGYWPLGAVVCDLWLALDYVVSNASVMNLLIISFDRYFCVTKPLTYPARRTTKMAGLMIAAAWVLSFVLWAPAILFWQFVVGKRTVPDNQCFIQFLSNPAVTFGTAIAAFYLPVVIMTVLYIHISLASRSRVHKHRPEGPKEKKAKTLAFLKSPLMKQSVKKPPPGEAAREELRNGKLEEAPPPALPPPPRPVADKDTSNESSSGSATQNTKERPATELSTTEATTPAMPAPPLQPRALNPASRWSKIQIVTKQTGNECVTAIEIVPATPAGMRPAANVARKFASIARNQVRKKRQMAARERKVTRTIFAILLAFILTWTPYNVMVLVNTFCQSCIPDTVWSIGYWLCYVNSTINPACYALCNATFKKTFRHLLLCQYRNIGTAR

[7] = target: Alpha-2A adrenergic receptor (Homo sapiens) (UniProt P08913); settings: Compound concentration 1.0 uM
[8] = target: 5-hydroxytryptamine receptor 1D (Homo sapiens) (UniProt P28221); settings: Compound concentration 1.0 uM
Sequence of 5-hydroxytryptamine receptor 1D (Homo sapiens) (P28221 whole entry): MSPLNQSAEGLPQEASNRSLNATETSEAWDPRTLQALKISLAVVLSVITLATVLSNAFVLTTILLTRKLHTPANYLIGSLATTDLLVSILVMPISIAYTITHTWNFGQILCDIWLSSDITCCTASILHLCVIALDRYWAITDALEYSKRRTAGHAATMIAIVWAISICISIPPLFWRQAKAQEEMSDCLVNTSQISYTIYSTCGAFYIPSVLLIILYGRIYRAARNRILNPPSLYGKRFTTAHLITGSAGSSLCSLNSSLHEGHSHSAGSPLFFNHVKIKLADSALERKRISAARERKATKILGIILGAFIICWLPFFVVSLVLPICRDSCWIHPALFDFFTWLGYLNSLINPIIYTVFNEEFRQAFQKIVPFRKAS

[9] = target: Muscarinic acetylcholine receptor M5 (Homo sapiens) (UniProt P08912); settings: Compound concentration 1.0 uM
[10] = target: 5-hydroxytryptamine receptor 2B (Homo sapiens) (UniProt P41595); settings: Compound concentration 1.0 uM
[11] = target: Sodium-dependent dopamine transporter (Homo sapiens) (UniProt Q01959); settings: Compound concentration 1.0 uM
[12] = target: Sigma non-opioid intracellular receptor 1 (Homo sapiens) (UniProt Q99720); settings: Compound concentration 1.0 uM
Sequence of Sigma non-opioid intracellular receptor 1 (Homo sapiens) (Q99720 whole entry): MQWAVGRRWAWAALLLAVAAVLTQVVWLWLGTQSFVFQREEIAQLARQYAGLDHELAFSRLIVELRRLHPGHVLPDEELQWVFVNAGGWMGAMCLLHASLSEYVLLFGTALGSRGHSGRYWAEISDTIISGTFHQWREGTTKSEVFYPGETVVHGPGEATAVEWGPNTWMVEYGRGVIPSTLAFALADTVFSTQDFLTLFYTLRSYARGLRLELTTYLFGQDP

[13] = target: Alpha-2B adrenergic receptor (Homo sapiens) (UniProt P18089); settings: Compound concentration 1.0 uM
Sequence of Alpha-2B adrenergic receptor (Homo sapiens) (P18089 whole entry): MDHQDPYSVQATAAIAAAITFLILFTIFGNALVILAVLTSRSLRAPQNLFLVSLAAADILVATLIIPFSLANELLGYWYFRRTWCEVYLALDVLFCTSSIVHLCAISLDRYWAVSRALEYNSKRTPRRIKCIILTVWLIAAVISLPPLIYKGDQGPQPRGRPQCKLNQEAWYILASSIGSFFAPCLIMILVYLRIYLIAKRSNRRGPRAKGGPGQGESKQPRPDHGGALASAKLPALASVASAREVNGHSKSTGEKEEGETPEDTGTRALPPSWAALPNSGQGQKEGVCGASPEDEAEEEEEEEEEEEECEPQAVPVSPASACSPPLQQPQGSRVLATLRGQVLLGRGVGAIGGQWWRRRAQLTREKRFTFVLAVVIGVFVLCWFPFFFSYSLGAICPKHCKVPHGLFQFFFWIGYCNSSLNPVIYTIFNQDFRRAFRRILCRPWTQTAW

[14] = target: Histamine H4 receptor (Homo sapiens) (UniProt Q9H3N8); settings: Compound concentration 1.0 uM
Sequence of Histamine H4 receptor (Homo sapiens) (Q9H3N8 whole entry): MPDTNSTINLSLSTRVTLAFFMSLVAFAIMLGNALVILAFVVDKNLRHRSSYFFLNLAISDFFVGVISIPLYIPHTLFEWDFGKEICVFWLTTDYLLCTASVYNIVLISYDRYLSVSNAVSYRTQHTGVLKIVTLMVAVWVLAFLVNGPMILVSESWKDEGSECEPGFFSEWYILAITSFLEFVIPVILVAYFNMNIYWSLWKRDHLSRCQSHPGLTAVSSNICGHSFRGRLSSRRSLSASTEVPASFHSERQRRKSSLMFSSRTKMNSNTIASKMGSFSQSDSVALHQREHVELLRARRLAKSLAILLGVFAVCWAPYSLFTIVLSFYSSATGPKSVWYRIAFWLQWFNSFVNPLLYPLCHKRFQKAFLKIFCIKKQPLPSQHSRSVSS

[15] = target: Delta-type opioid receptor (Homo sapiens, UniProt P41143); test: GPCRScan assay: inhibition of DOR; design: radioligand conc. used [nm] 1.0 – 2.0, parental cells stable HEK
Sequence of Delta-type opioid receptor (P41143 whole entry): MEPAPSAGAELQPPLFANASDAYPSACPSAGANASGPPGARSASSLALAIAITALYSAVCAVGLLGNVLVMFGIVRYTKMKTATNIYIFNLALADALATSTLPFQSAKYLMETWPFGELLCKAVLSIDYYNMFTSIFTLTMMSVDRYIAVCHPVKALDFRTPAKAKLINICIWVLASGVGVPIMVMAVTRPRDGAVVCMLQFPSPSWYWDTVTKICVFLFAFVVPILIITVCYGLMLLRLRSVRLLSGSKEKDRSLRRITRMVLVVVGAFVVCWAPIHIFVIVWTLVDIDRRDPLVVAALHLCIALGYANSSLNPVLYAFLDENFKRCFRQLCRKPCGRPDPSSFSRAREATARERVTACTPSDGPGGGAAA

[16] = target: Muscarinic acetylcholine receptor M1 (Homo sapiens) (UniProt P11229); settings: Compound concentration 1.0 uM
[17] = target: Muscarinic acetylcholine receptor M3 (Homo sapiens) (UniProt P20309); settings: Compound concentration 1.0 uM
[18] = target: Alpha-1D adrenergic receptor (Homo sapiens) (UniProt P25100); settings: Compound concentration 1.0 uM
[19] = target: Histamine H2 receptor (Homo sapiens) (UniProt P25021); settings: Compound concentration 1.0 uM
[20] = target: Sodium-dependent noradrenaline transporter (Homo sapiens) (UniProt P23975); settings: Compound concentration 1.0 uM
[21] = target: D(2) dopamine receptor (Homo sapiens) (UniProt P14416); settings: Compound concentration 1.0 uM
Sequence of D(2) dopamine receptor (Homo sapiens) (P14416 whole entry): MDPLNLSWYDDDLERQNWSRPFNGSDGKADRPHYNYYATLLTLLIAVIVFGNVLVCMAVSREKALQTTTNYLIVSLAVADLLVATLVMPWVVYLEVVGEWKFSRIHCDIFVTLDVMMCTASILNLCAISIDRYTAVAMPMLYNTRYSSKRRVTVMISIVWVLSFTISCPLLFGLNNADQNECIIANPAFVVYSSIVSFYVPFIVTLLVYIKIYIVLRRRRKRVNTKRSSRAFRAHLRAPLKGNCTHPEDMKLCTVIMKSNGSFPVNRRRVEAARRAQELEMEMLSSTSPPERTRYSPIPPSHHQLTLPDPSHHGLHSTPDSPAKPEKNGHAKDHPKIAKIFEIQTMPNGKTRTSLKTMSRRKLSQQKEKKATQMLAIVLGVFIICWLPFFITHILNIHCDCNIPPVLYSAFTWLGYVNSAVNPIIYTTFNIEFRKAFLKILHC

[22] = target: Beta-3 adrenergic receptor (Homo sapiens) (UniProt P13945); settings: Compound concentration 1.0 uM
[23] = target: T1, GABA-A receptor; anion channel (Rattus norvegicus) (UniProt O09028+P15431+P18506+P18508+P19969+P20236+P23574+P23576+P28471+P28473+P30191+P62813+P63079+P63138+Q91ZM7+Q9ES14); settings: Compound concentration 1.0 uM
[24] = target: T1, GABA-A receptor; anion channel (Rattus norvegicus); settings: Compound concentration 1.0 uM; remark: listed apart in the source
[25] = target: Sodium-dependent serotonin transporter (Homo sapiens) (UniProt P31645); settings: Compound concentration 1.0 uM
[26] = target: D(3) dopamine receptor (Homo sapiens) (UniProt P35462); settings: Compound concentration 1.0 uM
[27] = target: 5-hydroxytryptamine receptor 1B (Homo sapiens) (UniProt P28222); settings: Compound concentration 1.0 uM
[28] = target: Muscarinic acetylcholine receptor M2 (Homo sapiens) (UniProt P08172); settings: Compound concentration 1.0 uM
Sequence of Muscarinic acetylcholine receptor M2 (Homo sapiens) (P08172 whole entry): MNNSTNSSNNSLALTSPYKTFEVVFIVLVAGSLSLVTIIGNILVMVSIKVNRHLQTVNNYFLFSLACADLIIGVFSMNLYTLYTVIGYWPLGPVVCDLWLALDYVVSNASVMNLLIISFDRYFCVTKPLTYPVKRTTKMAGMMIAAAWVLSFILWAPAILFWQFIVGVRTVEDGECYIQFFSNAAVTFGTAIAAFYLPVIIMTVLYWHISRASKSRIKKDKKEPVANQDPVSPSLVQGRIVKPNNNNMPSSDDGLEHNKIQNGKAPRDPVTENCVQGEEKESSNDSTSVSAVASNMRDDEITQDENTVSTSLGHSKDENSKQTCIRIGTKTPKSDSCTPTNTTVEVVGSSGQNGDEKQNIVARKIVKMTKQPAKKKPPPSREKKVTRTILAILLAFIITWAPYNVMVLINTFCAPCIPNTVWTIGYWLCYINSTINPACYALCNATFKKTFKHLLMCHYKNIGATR

[29] = target: 5-hydroxytryptamine receptor 1A (Homo sapiens) (UniProt P08908); settings: Compound concentration 1.0 uM
[30] = target: Kappa-type opioid receptor (Homo sapiens) (UniProt P41145); settings: Compound concentration 1.0 uM
[31] = target: 5-hydroxytryptamine receptor 7 (Homo sapiens) (UniProt P34969); settings: Compound concentration 1.0 uM
Sequence of 5-hydroxytryptamine receptor 7 (Homo sapiens) (P34969 whole entry): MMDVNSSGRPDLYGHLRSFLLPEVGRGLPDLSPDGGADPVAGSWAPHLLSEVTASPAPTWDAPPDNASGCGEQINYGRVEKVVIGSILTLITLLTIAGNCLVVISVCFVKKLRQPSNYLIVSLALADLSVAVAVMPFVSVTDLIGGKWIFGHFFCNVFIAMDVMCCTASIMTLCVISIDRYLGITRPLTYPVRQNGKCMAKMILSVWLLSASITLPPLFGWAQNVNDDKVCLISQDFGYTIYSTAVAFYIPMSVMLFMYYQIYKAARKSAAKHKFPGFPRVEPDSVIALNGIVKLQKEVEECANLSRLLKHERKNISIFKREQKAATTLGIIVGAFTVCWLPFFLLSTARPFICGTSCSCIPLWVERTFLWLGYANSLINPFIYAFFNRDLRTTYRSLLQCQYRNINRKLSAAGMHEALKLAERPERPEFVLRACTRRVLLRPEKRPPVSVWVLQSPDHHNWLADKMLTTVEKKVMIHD

[32] = target: 5-hydroxytryptamine receptor 6 (Homo sapiens) (UniProt P50406); settings: Compound concentration 1.0 uM
[33] = Cellular activity assay: GPR54 expressing cell growth
[34] = target: 5-hydroxytryptamine receptor 1E (Homo sapiens) (UniProt P28566); settings: Compound concentration 1.0 uM
[35] = target: Histamine H1 receptor (Homo sapiens) (UniProt P35367); settings: Compound concentration 1.0 uM
[36] = target: Beta-1 adrenergic receptor (Homo sapiens) (UniProt P08588); settings: Compound concentration 1.0 uM
[37] = target: Alpha-2C adrenergic receptor (Homo sapiens) (UniProt P18825); settings: Compound concentration 1.0 uM
Sequence of Alpha-2C adrenergic receptor (Homo sapiens) (P18825 whole entry): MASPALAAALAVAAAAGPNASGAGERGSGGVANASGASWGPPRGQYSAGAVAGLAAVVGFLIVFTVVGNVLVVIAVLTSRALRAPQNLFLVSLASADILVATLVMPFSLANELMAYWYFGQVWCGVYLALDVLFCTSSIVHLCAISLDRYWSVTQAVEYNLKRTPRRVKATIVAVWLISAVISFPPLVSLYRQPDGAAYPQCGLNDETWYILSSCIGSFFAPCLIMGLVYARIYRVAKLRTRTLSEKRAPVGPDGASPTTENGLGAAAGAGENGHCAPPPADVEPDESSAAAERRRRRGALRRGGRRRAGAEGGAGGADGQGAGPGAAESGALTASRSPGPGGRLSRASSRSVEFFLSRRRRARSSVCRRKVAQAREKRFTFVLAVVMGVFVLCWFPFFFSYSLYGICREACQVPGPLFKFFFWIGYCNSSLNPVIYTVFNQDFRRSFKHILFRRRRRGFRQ

[38] = target: D(1B) dopamine receptor (Homo sapiens) (UniProt P21918); settings: Compound concentration 1.0 uM
[39] = target: 5-hydroxytryptamine receptor 5A (Homo sapiens) (UniProt P47898); settings: Compound concentration 1.0 uM
[40] = target: Sigma intracellular receptor 2 (Homo sapiens) (UniProt Q5BJF2); settings: Compound concentration 1.0 uM
Sequence of Sigma intracellular receptor 2 (Homo sapiens) (Q5BJF2 whole entry): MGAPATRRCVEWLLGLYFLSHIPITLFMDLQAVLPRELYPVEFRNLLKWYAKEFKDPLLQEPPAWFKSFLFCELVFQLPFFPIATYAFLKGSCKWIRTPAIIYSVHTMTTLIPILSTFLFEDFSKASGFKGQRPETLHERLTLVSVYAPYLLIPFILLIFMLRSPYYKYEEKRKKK

[41] = target: Beta-2 adrenergic receptor (Homo sapiens) (UniProt P07550); settings: Compound concentration 1.0 uM
[42] = target: Alpha-1B adrenergic receptor (Homo sapiens) (UniProt P35368); settings: Compound concentration 1.0 uM
[43] = target: 5-hydroxytryptamine receptor 2A (Homo sapiens) (UniProt P28223); settings: Compound concentration 1.0 uM
KiSS-1 receptor = KiSS-1 receptor (Homo sapiens, UniProt Q969F8); test: Agonist activity for hGPR54 (C-terminal ethyl amide)
[44] = target: 5-hydroxytryptamine receptor 3A (Homo sapiens) (UniProt P46098); settings: Compound concentration 1.0 uM
[45] = target: D(4) dopamine receptor (Homo sapiens) (UniProt P21917); settings: Compound concentration 1.0 uM

## CNC(=N)NCCC[C@H](NC(=O)[C@H](CC(C)C)NC(=O)NNC(=O)[C@H](Cc1ccccc1)NC(=O)[C@H](CO)NC(=O)[C@H](CC(N)=O)NC(=O)[C@@H](Cc1ccncc1)NC(=O)[C@H](N)Cc1ccc(O)cc1)C(=O)N[C@@H](Cc1ccccc1)C(N)=O [KISS1-305] (H-[dY][d4Pal]NSF[azaGly]L[Arg(Me)]F-NH2)
Rattus norvegicus
  inhibition: 31.4%
[1]
  inhibition: 43.3%
[2]
  inhibition: -9.06%
[3]
  inhibition: 12.8%
[4]
  inhibition: -7.58%
[5]
  inhibition: -4.62%
[6]
  inhibition: 13.8%
[7]
  inhibition: 8.6%
[8]
  inhibition: 10.4%
[9]
  inhibition: 14.9%
[10]
  inhibition: 1.13%
[11]
  inhibition: 12%
[12]
  inhibition: 3.72%
[13]
  inhibition: 17.6%
[14]
  inhibition: 10.4%
[15]; read-out: Ki
  Ki: 47.5 nM
[15]; read-out: pKi (converted)
  Ki: 44.7 nM
[16]
  inhibition: 2.17%
[17]
  inhibition: 10.7%
[18]
  inhibition: 13.9%
[19]
  inhibition: 4.38%
[20]
  inhibition: 5.4%
[21]
  inhibition: 0.859%
[22]
  inhibition: 7.09%
[23]
  inhibition: 13.6%
[24]
  inhibition: 1.39%
[25]
  inhibition: 8.84%
[26]
  inhibition: -8.85%
[27]
  inhibition: 29.3%
[28]
  inhibition: 25.1%
[29]
  inhibition: 18.5%
[30]
  inhibition: -6.31%
[31]
  inhibition: -2.33%
[32]
  inhibition: 4.93%
[33]
  IC50: 8.94 nM (active)
[34]
  inhibition: 24.1%
[35]
  inhibition: 19.9%
[36]
  inhibition: 0.557%
[37]
  inhibition: 4.19%
[38]
  inhibition: 0.512%
[39]
  inhibition: 20.1%
[40]
  inhibition: -5.31%
[41]
  inhibition: 1.39%
[42]
  inhibition: -7.65%

## CNC(=N)NCCC[C@H](NC(=O)[C@H](CC(C)C)NC(=O)NNC(=O)[C@H](Cc1ccccc1)NC(=O)[C@H](CO)NC(=O)[C@H](CC(N)=O)NC(=O)[C@@H](Cc1cccnc1)NC(=O)[C@H](N)Cc1ccc(O)cc1)C(=O)NCC(N)=O [KISS1-543] (H-[dY][d3Pal]NSF[azaGly]L[Arg(Me)]G-NH2)
Rattus norvegicus
  inhibition: 15.6%
[1]
  inhibition: 12.5%
[43]
  inhibition: 16.9%
[3]
  inhibition: -2.67%
[4]
  inhibition: -0.599%
[5]
  inhibition: -7.85%
[6]
  inhibition: 18.5%
[7]
  inhibition: 10.2%
[8]
  inhibition: 12.4%
[9]
  inhibition: 12.3%
[10]
  inhibition: 11.3%
[11]
  inhibition: 10.4%
[12]
  inhibition: 0.205%
[13]
  inhibition: 14.5%
[14]
  inhibition: -3.39%
[16]
  inhibition: 15.1%
[17]
  inhibition: 24.7%
KiSS-1 receptor
  EC50: > 1000 nM (not active)
[18]
  inhibition: 9.13%
[19]
  inhibition: 3.31%
[20]
  inhibition: -1.33%
[21]
  inhibition: 9.68%
[22]
  inhibition: 2.7%
[23]
  inhibition: 12.3%
[24]
  inhibition: 15.5%
[25]
  inhibition: -0.408%
[26]
  inhibition: -3.9%
[27]
  inhibition: 31%
[28]
  inhibition: 40.7%
[29]
  inhibition: 30.9%
[30]
  inhibition: -5.75%
[31]
  inhibition: -6.69%
[32]
  inhibition: -0.513%
[34]
  inhibition: 27.9%
[36]
  inhibition: 3.41%
[37]
  inhibition: -0.48%
[38]
  inhibition: 29.2%
[44]
  inhibition: -8.29%
[39]
  inhibition: 16.3%
[40]
  inhibition: -8.74%
[41]
  inhibition: -2.89%
[45]
  inhibition: -9.83%
[42]
  inhibition: -2.08%
